Source: publication PMC4660213, “Identification and characterization of multiple rubisco activases in chemoautotrophic bacteria” (Nature Communications, 2015)

What was measured:
Format in all cases: biochemical
AfLS = biological target: T1, AfLS (Acidithiobacillus ferrooxidans, UniProt B7JA24); test: spectrophotometric coupled rubisco assay of ECMC complex; details: activated enzyme (ECM) preincubated with fourfold excess of carboxypentitol bisphosphate (1:1 CABP and carboxyribitol isomer); pH 8.0, 25 °C, 20 mM NaHCO3, Mg2+; active site
T1 construct: gene cbbL2; cbbLS in pET30b, E. coli BL21, ion exchange and gel filtration, L8S8 hexadecamer, predicted 530 kDa; with Ribulose bisphosphate carboxylase small subunit
T1 sequence (B7JA24 whole entry): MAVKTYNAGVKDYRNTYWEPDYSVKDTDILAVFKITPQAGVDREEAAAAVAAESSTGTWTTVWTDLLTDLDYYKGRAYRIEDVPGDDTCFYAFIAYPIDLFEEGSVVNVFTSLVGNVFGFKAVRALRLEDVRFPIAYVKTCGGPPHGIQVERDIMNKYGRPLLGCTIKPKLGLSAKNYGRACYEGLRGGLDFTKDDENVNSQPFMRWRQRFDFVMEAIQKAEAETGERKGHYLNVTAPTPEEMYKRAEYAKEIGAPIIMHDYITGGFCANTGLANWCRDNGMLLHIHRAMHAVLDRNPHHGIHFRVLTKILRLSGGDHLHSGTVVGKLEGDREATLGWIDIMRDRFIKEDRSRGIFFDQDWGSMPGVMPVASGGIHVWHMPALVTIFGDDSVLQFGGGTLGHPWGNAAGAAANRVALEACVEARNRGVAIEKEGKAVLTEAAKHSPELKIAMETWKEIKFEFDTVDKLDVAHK
T1 sequence (B7JA25 1-118 partner): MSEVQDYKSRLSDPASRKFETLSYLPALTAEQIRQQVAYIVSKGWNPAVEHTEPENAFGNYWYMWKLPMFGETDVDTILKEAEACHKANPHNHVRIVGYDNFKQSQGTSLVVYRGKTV

AfM [1] = biological target: T2, AfM (Acidithiobacillus ferrooxidans, UniProt B7J5E3); test: as above; details: activated enzyme (ECM) preincubated with fourfold excess of carboxypentitol bisphosphate (1:1 CABP and carboxyribitol isomer); pH 8.0, 25 °C, 20 mM NaHCO3, Mg2+; active site but 5 mM NaHCO3
T2 construct: gene cbbL2; His6-ubiquitin fusion cleaved to native N terminus, E. coli BL21 (DE3), hexamer (L6), 313 kDa measured
T2 sequence (B7J5E3 entry or part of it): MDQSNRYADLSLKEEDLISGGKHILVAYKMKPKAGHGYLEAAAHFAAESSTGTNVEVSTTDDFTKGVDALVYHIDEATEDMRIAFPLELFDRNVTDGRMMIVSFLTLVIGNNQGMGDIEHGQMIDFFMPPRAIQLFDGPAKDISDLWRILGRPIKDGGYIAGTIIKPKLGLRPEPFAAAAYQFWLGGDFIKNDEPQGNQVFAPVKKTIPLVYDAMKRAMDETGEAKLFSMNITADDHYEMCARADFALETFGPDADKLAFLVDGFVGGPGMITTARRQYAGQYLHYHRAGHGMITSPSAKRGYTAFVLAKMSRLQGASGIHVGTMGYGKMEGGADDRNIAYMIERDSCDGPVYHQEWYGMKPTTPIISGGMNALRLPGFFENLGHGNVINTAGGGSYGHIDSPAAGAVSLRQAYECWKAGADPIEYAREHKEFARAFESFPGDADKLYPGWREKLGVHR

AfQ2 = biological target: T3, AfQ2 (Acidithiobacillus ferrooxidans, UniProt B7J5E4); test: coupled ATPase assay (NADH oxidation); details: 25 °C; basal, no rubisco
T3 construct: gene cbbQ-2; His6-ubiquitin fusion cleaved to native N terminus, E. coli, homohexamer, 173 kDa measured
T3 sequence (B7J5E4 entry or part of it): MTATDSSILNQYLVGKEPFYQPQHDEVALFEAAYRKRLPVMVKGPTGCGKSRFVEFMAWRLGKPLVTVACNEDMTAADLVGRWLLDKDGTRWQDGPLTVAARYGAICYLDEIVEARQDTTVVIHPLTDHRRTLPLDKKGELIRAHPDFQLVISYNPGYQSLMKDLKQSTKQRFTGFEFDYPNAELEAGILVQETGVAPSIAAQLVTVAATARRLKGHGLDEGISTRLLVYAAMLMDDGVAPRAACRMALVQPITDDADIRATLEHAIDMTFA

Q2O2 [2] = biological target: T4, Q2O2 (Acidithiobacillus ferrooxidans, UniProt B7J5E4, W83L); test: coupled ATPase assay (NADH oxidation); details: 25 °C; basal, no rubisco
T4 construct: gene cbbQ-2; co-expressed His6-ubiquitin fusions cleaved, E. coli, CbbQ6CbbO1 hetero-oligomer, 285 kDa measured
T4 sequence (B7J5E4 entry or part of it W83L): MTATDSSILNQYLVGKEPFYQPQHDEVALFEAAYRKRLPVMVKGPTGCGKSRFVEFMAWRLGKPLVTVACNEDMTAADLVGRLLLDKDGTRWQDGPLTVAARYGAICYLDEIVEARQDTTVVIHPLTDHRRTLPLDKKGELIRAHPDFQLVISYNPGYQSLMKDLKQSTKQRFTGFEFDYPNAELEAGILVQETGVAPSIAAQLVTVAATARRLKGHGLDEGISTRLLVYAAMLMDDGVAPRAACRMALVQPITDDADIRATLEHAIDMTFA
T4 sequence (B7J5E5 entry or part of it, stated change not applied, further chain): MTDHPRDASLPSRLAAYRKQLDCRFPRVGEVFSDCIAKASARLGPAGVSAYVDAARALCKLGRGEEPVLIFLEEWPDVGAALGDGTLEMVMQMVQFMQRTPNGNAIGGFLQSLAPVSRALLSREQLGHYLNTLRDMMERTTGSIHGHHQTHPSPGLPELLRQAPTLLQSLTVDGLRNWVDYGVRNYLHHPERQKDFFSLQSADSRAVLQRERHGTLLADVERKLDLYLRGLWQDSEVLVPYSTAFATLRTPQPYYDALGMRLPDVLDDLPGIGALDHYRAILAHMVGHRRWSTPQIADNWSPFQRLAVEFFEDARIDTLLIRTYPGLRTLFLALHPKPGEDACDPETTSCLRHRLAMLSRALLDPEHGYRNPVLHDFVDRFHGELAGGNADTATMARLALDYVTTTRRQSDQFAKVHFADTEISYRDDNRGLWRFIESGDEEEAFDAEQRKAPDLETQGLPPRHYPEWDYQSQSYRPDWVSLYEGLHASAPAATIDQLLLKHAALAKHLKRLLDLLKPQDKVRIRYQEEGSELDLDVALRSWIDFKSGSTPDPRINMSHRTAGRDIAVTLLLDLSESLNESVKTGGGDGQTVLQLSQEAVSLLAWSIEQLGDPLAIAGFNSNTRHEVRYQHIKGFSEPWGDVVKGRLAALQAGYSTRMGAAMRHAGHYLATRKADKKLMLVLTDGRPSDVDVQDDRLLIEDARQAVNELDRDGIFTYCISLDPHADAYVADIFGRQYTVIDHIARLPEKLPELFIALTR

Q2O2 [3] = biological target: T5, Q2O2 (Acidithiobacillus ferrooxidans, UniProt B7J5E4, W83F); test: coupled ATPase assay (NADH oxidation); details: 25 °C; basal, no rubisco
T5 construct: gene cbbQ-2; co-expressed His6-ubiquitin fusions cleaved, E. coli, CbbQ6CbbO1 hetero-oligomer, 285 kDa measured
T5 sequence (B7J5E4 entry or part of it W83F): as the sequence (B7J5E4 entry or part of it W83L) above, with L83F counted along it
T5 sequence (B7J5E5 entry or part of it, stated change not applied, further chain): as the sequence (B7J5E5 entry or part of it, stated change not applied, further chain) above

AfM [4] = biological target: T2, AfM; test: spectrophotometric coupled rubisco assay; details: pH 8.0, 25 °C, 1 mM RuBP, 5 mM NaHCO3, 5 mM MgCl2; substrate of ECM, also inhibits the apoenzyme (loose ER complex)

O=C(O)[C@@](O)(COP(=O)(O)O)[C@H](O)[C@H](O)COP(=O)(O)O (mixture of isomers) [CABP, carboxyarabinitol-1,5-bisphosphate]
spectrophotometric coupled rubisco assay of ECMC complex (AfLS): the form I (AfLS) ER and ECMC complexes were inactive | spectrophotometric coupled rubisco assay of ECMC complex (AfM [1]): AfM bound to the transition state analogue CABP (ECMC) formed stable and inactive complexes

Nc1ncnc2c1ncn2[C@@H]1O[C@H](COP(=O)(O)OP(=O)(O)OP(=O)(O)O)[C@@H](O)[C@H]1O [ATP]
coupled ATPase assay (NADH oxidation) (AfQ2): Both AfQ2 and Q2O2ΔC444 displayed a low ATPase activity | coupled ATPase assay (NADH oxidation) (Q2O2 [2]): The W83L and W83F mutants displayed three and twofold increased basal ATPase activities | coupled ATPase assay (NADH oxidation) (Q2O2 [3]): The W83L and W83F mutants displayed three and twofold increased basal ATPase activities

O=C(COP(=O)(O)O)[C@H](O)[C@H](O)COP(=O)(O)O [RuBP, ribulose-1,5-bisphosphate]
spectrophotometric coupled rubisco assay (AfM [4]): the activities of both AfM ECM and ER rapidly converged to a low rate
